Tests used:
[1] = molecular target: Aβ1-42 aggregated in advance (Homo sapiens, UniProt P05067); test: Aβ affinity (Kd association curve from fluorescence intensity); type: binding; conditions: aggregated Aβ1-42 0.5 μM, phosphate buffer pH 7.4, room temperature 1 hour
Excerpt: For compound (1a), the excitation wavelength was set to 460 nm, and the fluorescence wavelength was set to 515 nm. A Kd association curve was obtained from the fluorescence intensity using KaleidaGraph 4.5 (Synergy Software, Reading, Pa.).

angiotensin IV = angiotensin IV (Homo sapiens, UniProt P01019); test: Oxidation reaction of angiotensin IV (Example 3); type: biochemical; conditions: light irradiation 1.5 hours, neutral buffer, 37° C.
Excerpt: (§1) Then, the reaction was monitored with a mass spectrometer (MALDI-TOF MS) or LC/MS (ESI-Q).

methionine enkephalin = methionine enkephalin (Homo sapiens, UniProt P01210); test: Oxidation reaction of methionine enkephalin (Example 3); type: biochemical; conditions: light irradiation 1.5 hours, neutral buffer, 37° C.
Excerpt: as §1

amylin = molecular target: T1, amylin (Homo sapiens, UniProt P10997); test: Oxidation reaction of amylin; type: biochemical; conditions: pre-incubation 0 h
T1 construct: amylin, a hormone essential for glycemic control
T1 sequence (P10997 34-70 limits assumed): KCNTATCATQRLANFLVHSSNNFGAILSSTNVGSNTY
Procedure: as §1
The amino acid analysis of oxidized Aβ1-42 and oxidized amylin (carried out by Peptide Institute, Inc.) was conducted. The oxidized Aβ1-42 and the oxidized amylin were enzymatically digested with endopeptidase Lys-C and chymotrypsin, respectively, and the obtained digests were analyzed with a mass spectrometer (MALD-TOF MS) and LC/MS/MS (ESI-Q-TOF).

Aβ1-42 aggregated in advance, sequence (P05067 672-713 limits assumed): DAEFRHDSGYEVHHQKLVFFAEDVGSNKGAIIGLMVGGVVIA

Row | SMILES | Kd [1] | oxygenation of angiotensin IV (angiotensin IV) | oxygenation of methionine enkephalin (methionine enkephalin) | oxygenation of amylin in a monomeric state (amylin)
1 | C[n+]1c(-c2cc3c4c(c2)CCCN4CCC3)sc2cc(Br)ccc21 [compound (1a)] | 1100 nM |  |  | 
2 | Cc1cc2nc3c(=O)[nH]c(=O)nc-3n(C[C@H](O)[C@H](O)[C@H](O)CO)c2cc1C [riboflavin, reference compound] |  | approximately 40% | ~60% | high oxidative activity against monomeric amylin
